{
  "source": "patent US20170211073A1",
  "about": "“ANTISENSE ANTINEOPLASTIC AGENT” (priority 2014, published 2017)",
  "key": {"YB-1 [1]": {"system": "YB-1", "test": "YB-1 knockdown siRNA vs AmNA-AON, protein level (Western blotting)", "assay_type": "cell-based", "conditions": "AsPC-1, MIA PaCa-2, Suit-2, 20 nM, 48 hours", "method": "(§1) YB-1-siRNA or YB-1 #10AmNA was introduced (final concentration, 20 nM) into cells of the pancreatic cancer cell strains (AsPC-1, MIA PaCa-2, and Suit-2). After 48 hours, RNAs and proteins were extracted, and the YB-1 expression was evaluated by real-time RT-PCR and Western blotting at the mRNA level (A) and protein level (B), respectively. Both the knockdown efficiencies obtained with siRNA and #10 AmNA-AON were high at the mRNA level, and any clear difference was not observed between them. […] The graphs show mean±SD (n=3, *P<0.05)."}, "YB-1 [2]": {"system": "YB-1", "test": "YB-1 knockdown siRNA vs AmNA-AON, mRNA level (real-time RT-PCR)", "assay_type": "cell-based", "conditions": "AsPC-1, MIA PaCa-2, Suit-2; 20 nM; 48 hours", "method": "as §1"}, "[3]": {"system": "pancreatic cancer cell strain SUIT2", "test": "Apoptosis induction in SUIT2 by FACS and Western blotting (PARPp85, caspase-3)", "assay_type": "cell-based", "conditions": "20 nM, in vitro", "method": "In the same manner as that of Example 3, 20 nM of #10AmNA YB-1 antisense was introduced into the cells of the pancreatic cancer cell strain SUIT2 in vitro."}, "[4]": {"system": "ovarian cancer cell strain SKOV3", "test": "Proliferation of SKOV3 cells", "assay_type": "cell-based"}, "[5]": {"system": "human large intestine cancer cells HCT116", "test": "Antitumor effect of YB-1 ASO AmNA into blood, HCT116 subcutaneous tumor", "assay_type": "in vivo, nude mice", "method": "Antitumor effect of administration into blood of YB-1 ASO of AmNA type, of which high safety was confirmed in Example 9 compared with ASO constituted with the conventional BNA, was examined. The human large intestine cancer cells HCT116 were subcutaneously transplanted to the thighs of nude mice. After subcutaneous tumors having a diameter of 6 to 7 mm (average tumor volume, 78 vs. 72 mm^3) were formed, 200 μg/200 μL of YB-1 ASO AmNA was administered (once every two weeks, total 2 times) into the blood from the caudal veins. The diameters of the tumors were measured over time, and tumor volumes calculated in accordance with a calculation formula, (Major axis)×(Minor axis)/2, were compared with those obtained with the control antisense group. The subcutaneous tumors were collected after one week from the second administration (day 28), and weights thereof were compared. In the YB-1 ASO AmNA group, both the tumor diameter and tumor weight were suppressed to about ⅕ of those observed with the control antisense group (FIG. 10, *P<0.05)."}, "[6]": {"system": "gastric cancer cell strain AS44", "test": "Proliferation of AS44 cells", "assay_type": "cell-based"}, "[7]": {"system": "ovarian cancer cell strain SKOV3", "test": "SKOV3-luciferase peritoneum inoculation model", "assay_type": "in vivo", "conditions": "10 mg/kg BW intraperitoneally once a week for two weeks, vs control group", "method": "Peritoneum inoculation models of ovarian cancer cell strain SKOV3 stably expressing luciferase were prepared. Then, after 1 week from the transplantation of the cancer cells, 10 mg/kg BW of #10 AmNA YB-1 antisense was intraperitoneally administered once a week for two weeks, and the tumor volume was evaluated over time in terms of the luciferase activity."}, "Lewis lung cancer": {"system": "Lewis lung cancer", "test": "Lewis lung cancer subcutaneous tumor model", "assay_type": "in vivo", "conditions": "10 mg/kg BW caudal vein once a week for three weeks; days 14 and 21; vs control antisense group", "method": "Subcutaneous tumor models of lung cancer, Lewis lung cancer, were created. […] The tumor diameters were measured over time."}},
  "data": [
    {"substance": "TCTcctgcaccCTGg (TCTCCTGCACCCTGG; chemistry not fully specified) [#10AmNA]", "values": [
      {"measurement": "knockdown efficiency at the protein level", "setting": "YB-1 [1]", "value": "clearly higher"},
      {"measurement": "knockdown efficiency at the mRNA level", "setting": "YB-1 [2]", "value": "high"},
      {"measurement": "induction of apoptosis (FACS; PARPp85, caspase-3)", "setting": "[3]", "value": "Induction of apoptosis was observed"},
      {"measurement": "suppression of proliferation", "setting": "[4]", "value": "suppression of proliferation"},
      {"measurement": "tumor diameter as fraction of control antisense group", "setting": "[5]; 200 μg/200 μL caudal vein, once every two weeks, total 2 times", "value": "about ⅕"},
      {"measurement": "tumor weight as fraction of control antisense group", "setting": "[5]; day 28", "value": "about ⅕"},
      {"measurement": "suppression of proliferation", "setting": "[6]", "value": "suppression of proliferation"},
      {"measurement": "tumor volume (luciferase activity)", "setting": "[7]", "value": "significantly suppressed"},
      {"measurement": "increase of the tumor", "setting": "Lewis lung cancer", "value": "significantly suppressed"}
    ]}
  ]
}
